Experimental data reported in paper PMC11219871, “Epigenetic-based differentiation therapy for Acute Myeloid Leukemia” (Nature Communications, 2024).
Where “and” joins values, the source holds several entries; their conditions need not be identical. Equal values may be shown once.

What was measured:
[1] = system: HL-60, ML-2, MOLM-13 and MV4-11; experiment: γ-H2AX immunofluorescence (DNA damage); type: cell-based; conditions: daily treatment 48 hours, four AML cell lines
Experimental: authors should analyze this e.g by gH2AX immunofluorescence staining.
As positive control, HL-60 cells irradiated with an acute dose of 30 J/m2 UV for 2 minutes were
(see Reviewer Figure 22).

[2] = system: ML-2 xenograft in BALB/cA Rag2-/-γc-/- mice; experiment: Subcutaneous xenograft model (tumor volume, CD11b q-PCR, H3Ac, body weight); type: in vivo, mouse; conditions: for Tumor volume: ML-2 subcutaneous xenograft, individual mice (Fig 3B), in mm³; for body weight of mice: subcutaneous ML-2 AML mouse model, individual mice
Experimental: (§1) The subcutaneous xenograft models of ML-2 and MV4-11 derived cells, 5 × 10^6 and 10 × 10^6 cells, respectively, diluted in 100 µL of saline solution were subcutaneously inoculated in the back left flank of female BALB/cA Rag2^−/−γc^−/− mice. When tumors became palpable, the mice were randomized into three groups: vehicle, CM-444 and CM-1758, (eight animals/group). Treatment with 10 mg/kg of CM-444 or CM-1758 i.p. was started 4 days after injection when all mice presented subcutaneous tumors and was administered for 5 consecutive days followed by 2 resting days over 3 weeks for the ML-2 model or daily for 2 weeks for the MV4-11 model. The control group received only 80% saline solution, 10% DMSO […] 10% Tween 20 (diluents of CM-444 and CM-1758). Tumor size was analyzed every 2–3 days using the following method: […], where D and d corresponded to the longest and shortest diameter, respectively. The maximal tumor size/burden permitted by the Animal Care and Ethics Committee of the University of Navarra is 2000 mm^3. This maximal tumor size/burden was not exceeded in any case. ML-2 and MV4-11 tumors were explanted for differentiation and global histone acetylation analysis. Histones were extracted, and a western blot of H3Ac was performed as described above. For the differentiation study, RNA was extracted, and q-PCR of CD11b was performed as described above (CD11b sequence primer can be found in Supplementary Table 10).

[3] = system: MV4-11 xenograft in BALB/cA Rag2-/-γc-/- mice; experiment: as above; type: in vivo, mouse; conditions: for Tumor volume: MV4-11 subcutaneous xenograft, in mm³; for Tumor volume / body weight of mice: individual mice; for body weight of mice: subcutaneous MV4-11 AML mouse model
Experimental: as §1

[4] = system: MOLM-13 i.v. in BALB/cA Rag2-/-γc-/- mice; experiment: Intravenous xenograft model (survival, CD11b in blood, body weight); type: in vivo, mouse; conditions: for Body weight: intravenous MOLM-13 AML mouse model, individual mice
Experimental: (§2) The human AML MV4-11 and MOLM-13 xenograft mice models were generated by intravenous (i.v.) injection of 10 × 10^6 (MV4-11) or 1 × 10^4 (MOLM-13) cells diluted in 100 µL of saline solution in the tail vein of a 6-8-week-old female BALB/cA Rag2^−/−γc^−/− mice (n = 10). Treatment started 7 or 1 day after MV4-11 or MOLM-13 cells injection, respectively. MV4-11 and MOLM-13 mice were treated with i.p. 10 mg/kg of CM-444 and CM-1758 during 5 consecutive days followed by 2 resting days for 7 and 2 weeks, respectively. The control group received only 80% saline solution, 10% DMSO and 10% Tween 20 (diluents of CM-444 and CM-1758). The mice weight was controlled and remained stable during the treatment. Statistical results were calculated using the statistical software Medcalc. CD11b levels in blood samples from an intravenous MV4-11 mice model were measured by flow cytometry, as described above.

[5] = system: MV4-11 i.v. in BALB/cA Rag2-/-γc-/- mice; experiment: as above; type: in vivo, mouse; conditions: for body weight of mice: intravenous MV4-11 AML mouse model, individual mice
Experimental: as §2

COc1cc2nc(-c3cc(C)oc3C)cc(NCC3CCN(c4ncc(C(=O)NO)cn4)CC3)c2cc1OC [CM-1758, 2-[4-[[[2-(2,5-dimethyl-3-furyl)-6,7-dimethoxy-4-quinolyl]amino]methyl] -1-piperidyl]pyrimidine-5-carbohydroxamic acid]
DNA damage (γ-H2AX) [1]: do not induced DNA damage
CD11b expression in explanted tumors ([2]; ML-2 s.c., 10 mg/kg i.p.): significant increase in CD11b expression
H3Ac levels in tumors ([2]; ML-2 s.c., 10 mg/kg i.p.): increase in H3Ac levels
tumor growth ([2]; ML-2 s.c., 10 mg/kg i.p., 5 days on/2 off, 3 weeks): inhibited tumor growth significantly
Tumor volume ([2]; day 0): 0
Tumor volume ([2]; day 8): 47.3386 and 22.9378 and 56.1402 and 38.666 and 38.4941 and 0 and 12.669 and 19.4742
Tumor volume ([2]; day 11): 71.6377 and 35.2331 and 55.0976 and 24.3685 and 43.9734 and 8.639 and 15.4625 and 6.7915
Tumor volume ([2]; day 13): 158.593 and 184.271 and 192.133 and 111.517 and 131.043 and 16.1706 and 35.0775 and 32.6327
Tumor volume ([2]; day 15): 338.357 and 436.616 and 344.697 and 149.062 and 276.144 and 73.6819 and 103.063 and 52.9756
Tumor volume ([2]; day 18): 450.141 and 971.066 and 667.169 and 309.135 and 557.655 and 200.834 and 266.198 and 84.0917
Tumor volume ([2]; day 20): 750.162 and 778.307 and 425.752 and 619.516 and 424.823 and 364.169 and 387.08 and 367.037
Relative H3Ac/H3 total levels ([2]; after in vivo treatment, subcutaneous ML-2 mouse model, western blot, individual tumors): 1.2836 and 1.288 and 1.719 and 8.364 and 1.323 and 1.1332
body weight of mice ([2]; day 4, in g (unit assumed)): 23.8 and 22.2 and 25.1 and 23.3 and 24.6 and 21 and 23.7 and 24.3
body weight of mice ([2]; day 6, in g (unit assumed)): 23 and 20.6 and 24.5 and 22.4 and 23.6 and 21.2 and 22.8 and 24.2
body weight of mice ([2]; day 8): 22.9 (2×) and 20.3 and 23.8 and 22.4 and 21.2 and 22 and 23.5
body weight of mice ([2]; day 11, in g (unit assumed)): 23 and 22.4 and 24.2 and 23.7 and 23.9 and 21.1 and 23.2 and 25.2
body weight of mice ([2]; day 13): 23 (2×) and 21.6 and 24.6 and 24 and 23.4 and 22 and 25.4
body weight of mice ([2]; day 15): 22.8 and 22 and 24.5 and 23.6 (2×) and 20.9 and 22.4 and 24.7
body weight of mice ([2]; day 18, in g (unit assumed)): 22.9 and 21.9 and 23.9 and 24 and 22.8 and 20.8 and 21.6 and 24.1
body weight of mice ([2]; day 20): 22.1 and 20.8 (2×) and 23.3 (2×) and 19.4 and 19.9 and 23.7
CD11b expression from tumors measured by q-PCR ([2]; tumors of the subcutaneous ML-2 model, individual tumors (Fig 3C)): 1.158 log10 (2-ΔΔCt) and 2.588 log10 (2-ΔΔCt) and 4.58 log10 (2-ΔΔCt) and 3.25 log10 (2-ΔΔCt) and 2.2558 log10 (2-ΔΔCt)
CD11b expression in explanted tumors ([3]; MV4-11 s.c., 10 mg/kg i.p.): significant increase in CD11b expression
H3Ac levels in tumors ([3]; MV4-11 s.c., 10 mg/kg i.p.): increase in H3Ac levels
tumor growth ([3]; MV4-11 s.c., 10 mg/kg i.p. daily, 2 weeks): inhibited tumor growth significantly
Tumor volume ([3]; day 0): 0
Tumor volume ([3]; day 7): 3.017
Tumor volume ([3]; day 9): 146.917 and 71.6651 and 143.551 and 106.303 and 28.6195 and 85.1833 and 49.7152 and 104.914 and 63.9744 and 234.732
Tumor volume ([3]; day 12): 419.824 and 122.408 and 229.873 and 238.093 and 102.721 and 299.024 and 103.513 and 178.679 and 140.065 and 433.026
Tumor volume ([3]; day 14): 415.95 and 158.115 and 375.793 and 401.985 and 154.443 and 348.449 and 102.044 and 262.858 and 231.325 and 547.206
Relative H3Ac/H3 total levels ([3]; after in vivo treatment, subcutaneous MV4-11 mouse model, western blot, individual tumors): 1.267 and 1.234 and 1.332 and 1.244 and 1.416 and 1.49
body weight of mice ([3]; day 1, in g (unit assumed)): 23.6 and 18.5 and 22.2 and 22.3 and 23.2 and 21.8 and 24.2 and 20.2 and 19.5 and 21.3
body weight of mice ([3]; day 5): 21.3 and 16.3 and 21.5 (2×) and 21.2 and 22.1 and 23 and 20 (2×) and 20.2
body weight of mice ([3]; day 7): 20.5 and 16.4 and 21.3 and 21.6 and 20.8 and 23.9 and 19.5 (2×) and 19.3 and 19.8
body weight of mice ([3]; day 9, in g (unit assumed)): 21 and 17.1 and 21.6 and 21.1 and 21.7 and 20.2 and 23.4 and 19.3 and 19.8 and 20.4
body weight of mice ([3]; day 12, in g (unit assumed)): 21.3 and 18 and 22.5 and 21.9 and 22.2 and 21.8 and 23.6 and 19.9 and 20.4 and 21.5
body weight of mice ([3]; day 14): 21.4 and 17.3 and 21.1 and 21.6 (2×) and 21.8 and 23.6 and 20 and 20.5 and 21
body weight of mice ([3]; day 16): 22.2 (2×) and 18.1 and 21.8 and 21.5 and 22.3 and 24.4 and 20.3 and 20.9 and 21.7
CD11b expression, log10 (2-ΔΔCt) ([3]; tumors of the subcutaneous MV4-11 model, q-PCR, individual tumors): 0.854 and 1.2584 and 2.36 and 1.145 and 1.034
overall survival (OS) ([4]; MOLM-13 i.v., 10 mg/kg i.p., 5 days on/2 off, 2 weeks): not having observed an increase in OS
Body weight ([4]; day 4): 25.4 and 23.9 (2×) and 24.4 and 22.7 (2×) and 23.8 and 21.5 and 23 and 21.9
Body weight ([4]; day 6): 25.4 and 23 and 24.3 and 22 and 22.6 and 21.4 and 22.8 (2×) and 22.1 and 22.4
Body weight ([4]; day 8, in g (unit assumed)): 24.7 and 22.7 and 23.8 and 22.6 and 21.8 and 21.7 and 22.1 and 21.9 and 22 and 22.8
Body weight ([4]; day 11): 24.3 and 22.3 and 23.6 and 21.6 and 21.7 (2×) and 20.7 and 21 and 21.5 and 22.6
Body weight ([4]; day 13): 24.3 and 22.6 and 23.5 and 21.5 (2×) and 22.1 and 21.4 and 21.9 and 21.7 and 22.4
CD11b in blood samples ([5]; MV4-11 i.v., 10 mg/kg i.p.): statistically significant increase in CD11b
overall survival (OS) ([5]; MV4-11 i.v., 10 mg/kg i.p., 5 days on/2 off, 7 weeks): increased overall survival
body weight of mice ([5]; day 20, in g (unit assumed)): 25 and 24.9 and 24 and 26.8 and 24.5 and 23.3 and 20.4 and 22.9 and 24.6 and 23.8 and 22.8 and 23
body weight of mice ([5]; day 23, in g (unit assumed)): 23.9 and 24.6 and 28.5 and 27.5 and 23.5 and 23 and 19.4 and 23.1 and 23.8 and 22.2 and 22.5 and 22.4
body weight of mice ([5]; day 25): 23.7 (2×) and 23.8 and 27.9 and 26.9 and 23.2 and 22.7 and 19.6 and 22.8 and 21.9 and 22.2 and 22
body weight of mice ([5]; day 28): 23.6 (2×) and 23.8 and 26.5 and 26.6 and 23.2 and 23.1 and 18.9 and 21.4 and 21.2 and 21.7
body weight of mice ([5]; day 30): 23.1 and 23.9 and 25.7 and 26.6 and 22.3 and 22.6 (2×) and 18.6 and 21 (2×) and 22.1
body weight of mice ([5]; day 31): 23.5 and 22.8 and 25.9 and 26.7 and 22.3 and 22.1 (2×) and 18.3 and 21.8 and 21.3 and 17.9
body weight of mice ([5]; day 35, in g (unit assumed)): 24 and 22.9 and 26.1 and 26.8 and 22.4 and 23.1 and 19.4 and 22.5 and 22 and 22.1
body weight of mice ([5]; day 37): 23.4 and 24.4 (2×) and 27.2 and 26.3 and 22.9 and 18.3 and 23.1 and 22 and 22.7
body weight of mice ([5]; day 42, in g (unit assumed)): 25.8 and 24.7 and 28.1 and 26.1 and 23.8 and 24.5 and 20.5 and 23.3
body weight of mice ([5]; day 44, in g (unit assumed)): 26 and 25.3 and 28.3
CD11b levels in blood samples ([5]; mice engrafted intravenously with MV4-11 cells, individual mice (Fig 3E)): 26.3% and 16.2% and 21.1% and 11.9% and 23.1% and 11% and 20.5%
Survival time (Kaplan-Meier, event = 1) ([5]; mice engrafted with MV4-11 cells intravenously, individual mice (Fig 3D)): 25 days and 32 days and 46 days and 48 days and 53 days and 57 days
